From patent US7557144B1, “Modulation of protein expression using carbocyclic aryl alkenoic acid derivatives” (The Johns Hopkins University, priority 2000, dated 2009)

What was measured:
Hsp70 = Hsp70 immunoblot of IB3-1 lysates; type: cell-based, human; details: IB3-1 cells
Description: 3. Immunoblot analysis. Whole cell lysates were prepared by solubilization with 2% SDS at 95° C. Protein concentration in the lysates was determined using the Bio-Rad DC assay reagents with bovine plasma g-globulin as a standard (Bio-Rad Laboratories, Hercules, Calif.). Equal amounts of protein was resolved on 5, 7, 8, or 9% SDS-polyacrylamide gels. Proteins were transferred to nitrocellulose, and immunodetection was performed as previously described (25). Nonspecific binding was blocked by incubation of the nitrocellulose with 2% gelatin or 10% nonfat day milk. Primary antisera and secondary antibodies were applied in buffer containing 0.4% BSA overnight at 4° C. and for 1 h at room temperature, respectively. Detection of immunoreactivity was performed with the enhanced chemiluminescence reagent (ECL, Amer-sham) and fluorography. Recombinant bovine Hsc70 ([…]) was purchased from Stressgen Biotechnologies for use in constructing a standard curve of Hsc70 immunoreactivity. Immunoblots containing the bovine Hsc70 were probed with the Hsc70-specific polyclonal antiserum.
Whether 4-PBA would regulate expression of a number of other molecular chaperones in IB3-1 cells (FIG. 2) was assessed next. […] Hsp90 is required for correct folding and function of a number of cellular proteins (16). […] Hsp70 (Hsp72) expression is induced by heat shock and the presence of denatured proteins within the eukaryotic cell (16). In Escherichia coli, the Hsp70 homologue DnaK and the Hsp40 homologue DnaJ act to promote protein folding (16). Hdj2 is the member of the Hsp40 family that specifically interacts with and regulates the ATPase activity of Hsc70. Hdj2 also interacts with CFTR during CFTR translation (26).
FIGS. 2A-2E are more specifically explained as follows. […] IB3-1 cells were treated as described for FIG. 1. Immunoblotting with 5 μg of IB3-1 SDS lysate protein was performed as described in the foregoing General Comments.
FIGS. 5A-C are explained in more detail as follows. […] A: IB3-1 cells were incubated at 37° C. for 2 days under indicated conditions. Cellular homogenates were prepared in 2% SDS as described in METHODS, and 5 μg of total cellular protein were analyzed by immunoblot for Hsc70 using rabbit polyclonal antiserum, Hsp90, Hsp70, Hsp40 as described above under General Comments. Con, control. B and C: densitometric analysis of Hsc70 expression (B) and Hsp90, Hsp70, and Hsp40 expression (C) was performed as described for FIG. 1. B: means 6 SE of density in 4 independent experiments.

Hsc70 mRNA = test: RNase protection assay of Hsc70 mRNA in IB3-1 cells; type: cell-based, human
From the text: 4. RNase protection. An Hsc70-specific probe for RNase protec-tion was constructed by isolation a 500-bp EcoR I fragment from American Type Culture Collection (ATCC) plasmid 77659 (ATCC, Manassas, Va.) and ligating this fragment into the EcoR I site of pSK(2) (Bluescript, Stratagene, La Jolla, Calif.). The resulting plasmid was sequenced in the Genetics Core Facility at the Johns Hopkins Hospital and found to be identical to sequences in exons 8 and 9 of the human Hsc70 sequence, with sequencing using the T3 primer and T7 primer leading to sense and antisense sequence, respectively. Hybridization probes were synthesized using a Maxiscript T7 kit (Ambion, Austin, Tex.) and [α^32 P]UTP (Amersham or DuPont NEN, Boston, Mass.) according to the Maxiscript protocol. Templates for internal control hybridizations, pTRI-18S and pTRI-cyclophilin A, were purchased from Ambion, and probes were similarly synthesized using the Maxiscript T7 kit. Probes were isolated by acid phenol-chloroform (Ambion) extraction, separated from unincorporated nucleotide by gel filtration (Sephadex G25 RNAspin column, Boehringer-Mannheim), and ethanol-acetate precipitated before resuspension in hybridization buffer. The concentration of radioactivity in the synthesized probes was determined by liquid scintillation.
RNase protection experiments were performed using the Direct Protect RNase protection assay kit (Ambion) according to the manufacturer's protocol. IB3-1 cell lysates were pre-pared in Direct Protect lysis buffer according to the manufacturer's protocol after incubation under the appropriate conditions for 48 h. Probe (50-70 and 5-10 thousands of counts/min for Hsc70 and control, respectively) and cellular RNA were hybridized overnight at 37° C. and digested with RNase cocktail. Protected fragments were resolved by electrophoresis on 5% acrylamide-8 M urea gels and detected by fluorography. Hsc70 mRNA concentration is expressed relative to control (18S or cyclophilin A) hybridization by densitometry (see Densitometric analysis). Results for hybridization of Hsc70 mRNA relative to the two control species were similar and were therefore grouped for data analysis.
FIGS. 3A-B are explained in more detailed as follows. Dose-dependent downregulation of Hsc70 mRNA expression by 4-PBA. A: IB3-1 cells were treated as for FIGS. 1 and 2. Hsc70 mRNA and 18S rRNA (as an internal reference) were measured by Direct Protect RNase protection as described under General Comments. […] P values (shown above respective error bars) were determined by 1-way ANOVA in comparison with control.
FIG. 6 is explained in more detail as follows. […] P values (shown above respective error bars) were determined by 1-way ANOVA in comparison with control.

CFTR = details: homozygous ΔF508 patients taking the drug for 1 week; Rubenstein et al. 1998; cited from earlier work

**Q.** Which results are given for `O=C(O)CCCc1ccccc1` [4-PBA, 4-phenylbutyric acid]?
**A.** expression of Hsp70 (Hsp70; increasing concentrations of 4-PBA (Example 1)): did not affect; Hsp70 expression (Hsp70; increasing concentrations of 4-phenylbutyrate (Example 11, FIG. 14)): induces Hsp70 in a dose-dependent manner; steady-state Hsc70 mRNA levels (Hsc70 mRNA; 4-PBA treatment, relative to 18S rRNA): concentration-dependent decrease; maximum decrease of Hsc70 mRNA, of control expression (Hsc70 mRNA; continuous exposure to 5 mM 4-PBA): ~50%; chloride transport in nasal potential difference measurements (CFTR): increase chloride transport
